Reference: patent US8466203B2, “Method of stabilizing human eye tissue by reaction with nitrite and related agents such as nitro compounds” (priority 2006, dated 2013)
Where “and” joins values, the source holds several entries; their conditions need not be identical. Equal entries are not always repeated. Where two headings read alike, the source gives them in different places.

How the values were obtained:
[1] = system: porcine cornea; test: Thermal shrinkage temperature analysis of porcine corneal strips
Description: (§1) Thermal shrinkage temperature or denaturation temperature (Ts) is a technique that has been used for decades in studying collagen cross-linking. As collagen fibers are progressively heated, a threshold temperature is reached at which point disruption of hydrogen bonding in the collagen molecule triple helix occurs, resulting in unwinding of the triple helices. The denaturation of tertiary protein structure results in a rapid shrinkage of the tissue of up to 80%. This phenomenon can be expressed in various ways including temperature of onset of tissue shrinkage, temperature at maximal tissue shrinkage, and temperature at 50% of maximal tissue shrinkage, for example. In addition, differential scanning calorimetry (DSC) is related to thermal shrinkage temperature analysis and is widely used to evaluate biomaterial cross-linking. Thermal shrinkage temperature is essentially a simplified version of DSC and can be used effectively to screen the cross-linking efficacy of compounds. For the purposes of this study, the onset of shrinkage is considered the Ts and the temperature at which 50% of maximal shrinkage has occurred is T50. Graphs depicting the relationship between degree of shrinkage and temperature indicate differences in degree of cross-linking between groups. Thus, stabilization of collagen fiber structures through non-enzymatic cross-linking increases Ts and T50.
(§2) This system can perform multiple Ts assays in succession, allowing rapid screening of a number of potential cross-linking agents and conditions. […] Inlet and outlet fittings allow for constant circulation of heated water which is modulated by a digitally controlled water bath equipped with a water pump. The entire box is placed on a digital photo scanner connected to a Windows based computer. Beginning at 50° C. the temperature is raised at a rate of 1° C./min and serial scans are taken at every degree increase in temperature up to 80° C. […] As the tissue shrinks, the images are captured by the scanner. The image files are later analyzed for 2-dimensional area using NIH Image J software and % shrinkage calculations are made using Microsoft Excel for graphing purposes. This method obviates the need for removal of tissue pieces from the water bath with manual micrometer measurements as described by the UVR group (Spoerl, E., et al., 2004).
Using this simple, reproducible assay enables the screening of a number of compounds for cross-linking efficacy. This is first performed using porcine eyes because of their low cost. Follow up studies can be performed using human eyes. Porcine eyes are obtained within 6 hrs of sacrifice (Hatfield Meat Packing, Inc., Hatfield Pa.). Eyes showing clear corneas and intact epithelia are chosen for study. […] Each strip is then cross-linked using a nitro agent. The incubation solution is 20% Dextran (T500) [to prevent tissue swelling] in 0.2 M NaH2PO4/Na2HPO4 (pH 7.4) with various concentrations of nitro agent (i.e. 1, 10, and 100 mM). […] The samples are then placed in 2 mL microcentrifuge tubes with 1 mL of incubation solution and reacted in a 34° C. water bath (simulating corneal temperature—Girardin, F., et al., “Relationship between corneal temperature and finger temperature,” Arch. Opthalmol. 1999; 117:166-169) for 24-96 hrs. Following incubation, the samples are evaluated for degree of cross-linking using the Ts assay as described above.

[2] = system: porcine cornea; test: Light transmission of cross-linked corneo-scleral complexes; conditions: 10 mM, 96 hrs incubation
Protocol: Following a 96 hrs incubation period at 10 mM, the corneo-scleral complexes were mounted between 2 pieces of quartz, previously determined to have no ultraviolet absorption. […] The sample was then mounted in a vertical, adjustable stage apparatus specifically designed to accommodate a PC 1000 Fibre Optic Spectrometer (Ocean Optics, Inc.). A xenon lamp was used as a light source and was connected to the upper half of the stage. The lower half was connected to a high sensitivity CCD mounted on a card which is installed in a PC computer. The CCD array detector captures a full wavelength spectrum (i.e. 200-1000 nm).
The absorption spectrum for each sample was recorded and exported into Microcal Origin 6.1 for processing. […] The scattering component was subtracted from the observed absorption spectrum by first fitting the scattering (non-absorption) portion of the spectrum (e.g. 700-800 nm) to the formula A=aλ^b, where A is the absorbance, λ is the wavelength, b is the order of the relationship between absorbance and wavelength, and a is a constant. The background signal due to scattering for all other wavelengths is then estimated using the coefficients determined from the fit. […] After scatter correction, the transmission spectrum for each absorption spectrum was calculated according to the Beer-Lambert law (T=10^−A×100%), where T is the transmission and A is the absorbance at each wavelength. […]

[3] = system: bovine corneal endothelial cells; conditions: 48 hrs exposure
[4] = system: porcine cornea; test: Yellowing of cross-linked porcine cornea; conditions: 100 mM concentration
Protocol: These images were taken from tissues cross-linked with nitrite and the β-nitro alcohols 2-nitroethanol, 2-nitro-1-propanol, and […], for 48 hrs. […] Fresh porcine corneal strips and corneoscleral complexes were obtained within 6 hrs of sacrifice and incubated at 37° C. in buffered solutions (pH 7.4) containing 20% Dextran (T500) and either 100 mM NaNO2 or 100 mM of one each of the β-nitro alcohols. After 48 hrs, the following images were obtained. […] FIGS. 13 (B and D)
As such, the effects on corneal light transmission induced by cross-linking with β-nitro alcohols was evaluated using a method adopted from Dillon et al 2004.

[5] = system: porcine sclera; test: Thermal shrinkage temperature analysis of porcine scleral strips; conditions: for T50 (temperature at 50% of maximal shrinkage) / T50 Δ (change in 50% shrinkage temperature compared to control) / Ti (temperature at 1% absolute shrinkage): pH 7.4, 37° C., 96 hrs
Description: as §1, §2
Using this simple, reproducible assay enables the screening of a number of compounds for cross-linking efficacy. This is first performed using porcine eyes because of their low cost. Follow up studies can be performed using human eyes. Porcine eyes are obtained within 6 hrs of sacrifice (Hatfield Meat Packing, Inc., Hatfield Pa.). Eyes showing clear corneas and intact epithelia are chosen for study. […] Each strip is then cross-linked using a nitro agent. […] Opthalmol. 1999; 117:166-169) for 24-96 hrs. Following incubation, the samples are evaluated for degree of cross-linking using the Ts assay as described above.
From the data, Ts curves are generated for each compound and condition studied. Each data point is the average of 3 independent samples.

O=[N+]([O-])CCO [2-nitroethanol]
Ts onset shift ([1]; 1 mM serially applied over 6 days): 1-2 °C | shift in Ts (in words) ([1]; 1 mM, 4 days without replacing the incubation solution): did not produce a shift in Ts | Ts onset shift ([1]; 10 mM): 5 °C | Ts onset shift ([1]; 100 mM): 8 °C | decrease in light transmission, 400-500 nm blue light region [2]: 3.6% | Apoptosis (Annexin V) staining ([3]; 0.1 mM): − | Apoptosis (Annexin V) staining ([3]; 0.5 mM): − | Apoptosis (Annexin V) staining ([3]; 0.75 mM): − | Apoptosis (Annexin V) staining ([3]; 1 mM): − | Apoptosis (Annexin V) staining ([3]; 2 mM): − | Apoptosis (Annexin V) staining ([3]; 3 mM): + | yellowing effect [4]: significant yellowing effect | T50 (temperature at 50% of maximal shrinkage) ([5]; 1 mM reagent): 65.7 °C | T50 Δ (change in 50% shrinkage temperature compared to control) ([5]; 1 mM reagent): 0.4 °C | Ti (temperature at 1% absolute shrinkage) ([5]; 1 mM reagent): 62.9 °C | Ts shift ([5]; 1 mM serially applied over 10 days): 2-3 °C | shift in Ts (in words) ([5]; 1 mM, 4 days (96 hrs) without replacing the incubation solution): did not produce a shift in Ts | T50 shift ([5]; 1 mM, incubation solution exchanged daily, 6 days): 1.3 °C | T50 shift ([5]; 1 mM, incubation solution exchanged daily, 10 days): 3.2 °C | T50 shift ([5]; 1 mM, incubation solution exchanged daily, 14 days): 5.4 °C and 5.6 °C | T50 (temperature at 50% of maximal shrinkage) ([5]; 10 mM reagent): 69.8 °C | T50 Δ (change in 50% shrinkage temperature compared to control) ([5]; 10 mM reagent): 4.5 °C | Ti (temperature at 1% absolute shrinkage) ([5]; 10 mM reagent): 67.2 °C | maximal increase of Ts ([5]; 100 mM): 8 °C | T50 (temperature at 50% of maximal shrinkage) ([5]; 100 mM reagent): 73.7 °C | Ti (temperature at 1% absolute shrinkage) ([5]; 100 mM reagent): 70.7 °C | T50 shift ([5]; 100 mM, 24 hrs of incubation): 1.4 °C | T50 shift ([5]; 100 mM, 48 hrs of incubation): 2.4 °C | T50 shift ([5]; 100 mM, 72 hrs of incubation): 5.3 °C | blocking of the cross-linking effect by equimolar urea ([5]; equimolar urea (nitrous acid trapping agent)): not blocked
